{
  "source": "ChEMBL document CHEMBL3044945",
  "about": "“Synthesis of 1,3,5-trisubstituted pyrazoline nucleus containing compounds and screening for antimicrobial activity” (2012)",
  "assay_type_in_all_cases": "functional",
  "key": {"[1]": {"test_system": "Penicillium chrysogenum", "test": "Antifungal activity against Penicillium chrysogenum MTCC 161 at 10 ug/ml after 48 hr by cup-plate method", "conditions": "MTCC 161, 48 h, read-out: DIZ"}, "[2]": {"test_system": "Aspergillus niger", "test": "Antifungal activity against Aspergillus niger MTCC 2546 at 10 ug/ml after 48 hr by cup-plate method", "conditions": "MTCC 2546, 48 h, read-out: DIZ"}, "[3]": {"test_system": "Pseudomonas fluorescens", "test": "Antibacterial activity against Pseudomonas fluorescens MTCC 2421 at 10 ug/ml after 48 hr by cup-plate method", "conditions": "MTCC 2421, 48 h, read-out: DIZ"}, "[4]": {"test_system": "Escherichia coli", "test": "Antibacterial activity against Escherichia coli MTCC 1573 at 10 ug/ml after 48 hr by cup-plate method", "conditions": "MTCC 1573, 48 h, read-out: DIZ"}, "[5]": {"test_system": "Pseudomonas aeruginosa", "test": "Antibacterial activity against Pseudomonas aeruginosa MTCC 424 at 10 ug/ml after 48 hr by cup-plate method", "conditions": "MTCC 424, 48 h, read-out: DIZ"}, "[6]": {"test_system": "Micrococcus luteus", "test": "Antibacterial activity against Micrococcus luteus MTCC 1538 at 10 ug/ml after 48 hr by cup-plate method", "conditions": "MTCC 1538, 48 h, read-out: DIZ"}, "[7]": {"test_system": "Bacillus pumilus", "test": "Antibacterial activity against Bacillus pumilus MTCC 1456 at 10 ug/ml after 48 hr by cup-plate method", "conditions": "MTCC 1456, 48 h, read-out: DIZ"}, "[8]": {"test_system": "Staphylococcus aureus", "test": "Antibacterial activity against Staphylococcus aureus MTCC 1430 at 10 ug/ml after 48 hr by cup-plate method", "conditions": "MTCC 1430, 48 h, read-out: DIZ"}, "[9]": {"test_system": "Bacillus subtilis", "test": "Antibacterial activity against Bacillus subtilis MTCC 441 at 10 ug/ml after 48 hr by cup-plate method", "conditions": "MTCC 441, 48 h, read-out: DIZ"}},
  "data": [
    {"smiles": "OC(Cn1cncn1)(Cn1cncn1)c1ccc(F)cc1F", "note": "[FLUCONAZOLE]", "values": [
      {"measurement": "zone of inhibition at 10 µg/mL", "setting": "[1]", "result": 25, "unit": "mm"},
      {"measurement": "zone of inhibition at 10 µg/mL", "setting": "[2]", "result": 24, "unit": "mm"}
    ]},
    {"smiles": "CCn1cc(C(=O)O)c(=O)c2cc(F)c(N3CCNCC3)cc21", "note": "[NORFLOXACIN]", "values": [
      {"measurement": "zone of inhibition at 10 µg/mL", "setting": "[3]", "result": 27, "unit": "mm"},
      {"measurement": "zone of inhibition at 10 µg/mL", "setting": "[4]", "result": 27, "unit": "mm"},
      {"measurement": "zone of inhibition at 10 µg/mL", "setting": "[5]", "result": 24, "unit": "mm"},
      {"measurement": "zone of inhibition at 10 µg/mL", "setting": "[6]", "result": 32, "unit": "mm"},
      {"measurement": "zone of inhibition at 10 µg/mL", "setting": "[7]", "result": 27, "unit": "mm"},
      {"measurement": "zone of inhibition at 10 µg/mL", "setting": "[8]", "result": 28, "unit": "mm"},
      {"measurement": "zone of inhibition at 10 µg/mL", "setting": "[9]", "result": 25, "unit": "mm"}
    ]}
  ]
}
